# Values of other authors, collected in article PMC9558053, “Development of a novel high-throughput screen for the identification of new inhibitors of protein S-acylation” (The Journal of Biological Chemistry, 2022).
# System: zDHHC20
# Parameters: method as in PMID 34467875, PMID 34309372
# Settings: ref [33], [39]; read-out: IC50 for inhibition of zDHHC20 activity in vitro; cited from earlier work
compound,measurement,value
C=CC(=O)N(CC#N)CCCCCCCCCCCCCC [N-cyanomethyl-N-myracrylamide],IC50,1350 ± 260 nM
